Source: the NIST ThermoML archive (doi:10.1021/je300252d)

Test: mn = molality of the nth substance listed, in mol/kg
Details: 100 kPa, Liquid, Direct current cell with electrodes

[Na+].c1ccc([B-](c2ccccc2)(c2ccccc2)c2ccccc2)cc1 [sodium tetraphenylboron] + CN(C)C=O
Details	molar conductivity [S·m2/mol]
283.15 K, m1 = 0.0001121	0.004311
283.15 K, m1 = 0.0003006	0.004246
283.15 K, m1 = 0.0005305	0.004194
283.15 K, m1 = 0.0007538	0.0041545
283.15 K, m1 = 0.001184	0.0040963
283.15 K, m1 = 0.001959	0.0040172
283.15 K, m1 = 0.002964	0.0039424
283.15 K, m1 = 0.004014	0.0038787
283.15 K, m1 = 0.005905	0.0037902
283.15 K, m1 = 0.007908	0.0037146
283.15 K, m1 = 0.009953	0.0036529
283.15 K, m1 = 0.01189	0.003601
288.15 K, m1 = 8.405e-05	0.004653
288.15 K, m1 = 0.0003375	0.00456
288.15 K, m1 = 0.0005532	0.0045097
288.15 K, m1 = 0.0008262	0.0044598
288.15 K, m1 = 0.001174	0.0044103
288.15 K, m1 = 0.001935	0.0043259
288.15 K, m1 = 0.003089	0.004235
288.15 K, m1 = 0.003947	0.00418
288.15 K, m1 = 0.005926	0.0040813
288.15 K, m1 = 0.007888	0.004001
288.15 K, m1 = 0.009893	0.0039356
288.15 K, m1 = 0.01186	0.0038782
293.15 K, m1 = 8.854e-05	0.00499
293.15 K, m1 = 0.0003068	0.004902
293.15 K, m1 = 0.0005164	0.0048481
293.15 K, m1 = 0.0007512	0.0047996
293.15 K, m1 = 0.001224	0.004726
293.15 K, m1 = 0.001989	0.004637
293.15 K, m1 = 0.003077	0.0045457
293.15 K, m1 = 0.004001	0.004483
293.15 K, m1 = 0.005908	0.0043822
293.15 K, m1 = 0.007927	0.004295
293.15 K, m1 = 0.009859	0.004226
293.15 K, m1 = 0.0119	0.004162
298.15 K, m1 = 0.000116	0.005325
298.15 K, m1 = 0.0003157	0.005244
298.15 K, m1 = 0.0005504	0.0051809
298.15 K, m1 = 0.0007618	0.0051351
298.15 K, m1 = 0.001217	0.0050592
298.15 K, m1 = 0.002007	0.0049609
298.15 K, m1 = 0.002964	0.0048739
298.15 K, m1 = 0.003939	0.004802
298.15 K, m1 = 0.005917	0.0046899
298.15 K, m1 = 0.00789	0.004599
298.15 K, m1 = 0.009808	0.0045256
298.15 K, m1 = 0.01189	0.0044558
303.15 K, m1 = 0.0001023	0.005694
303.15 K, m1 = 0.0003262	0.005596
303.15 K, m1 = 0.0005565	0.00553
303.15 K, m1 = 0.0007645	0.0054821
303.15 K, m1 = 0.001229	0.0053997
303.15 K, m1 = 0.002017	0.0052952
303.15 K, m1 = 0.003018	0.0051984
303.15 K, m1 = 0.004001	0.0051217
303.15 K, m1 = 0.005892	0.0050075
303.15 K, m1 = 0.007841	0.0049118
303.15 K, m1 = 0.009874	0.0048292
303.15 K, m1 = 0.01188	0.0047579
308.15 K, m1 = 0.000135	0.006046
308.15 K, m1 = 0.0003264	0.005961
308.15 K, m1 = 0.0005229	0.0058999
308.15 K, m1 = 0.0007539	0.0058422
308.15 K, m1 = 0.00122	0.0057534
308.15 K, m1 = 0.002002	0.0056421
308.15 K, m1 = 0.002969	0.005541
308.15 K, m1 = 0.00395	0.0054581
308.15 K, m1 = 0.005926	0.00533
308.15 K, m1 = 0.007923	0.0052265
308.15 K, m1 = 0.009885	0.005143
308.15 K, m1 = 0.01187	0.0050687
313.15 K, m1 = 8.854e-05	0.00646
313.15 K, m1 = 0.0002531	0.006367
313.15 K, m1 = 0.0004344	0.006299
313.15 K, m1 = 0.00071	0.0062208
313.15 K, m1 = 0.001219	0.006116
313.15 K, m1 = 0.002012	0.0059959
313.15 K, m1 = 0.003006	0.0058852
313.15 K, m1 = 0.00399	0.0057965
313.15 K, m1 = 0.005907	0.0056636
313.15 K, m1 = 0.007913	0.0055535
313.15 K, m1 = 0.00989	0.0054653
313.15 K, m1 = 0.01185	0.0053887
318.15 K, m1 = 0.0001115	0.006838
318.15 K, m1 = 0.0002618	0.006751
318.15 K, m1 = 0.000487	0.006665
318.15 K, m1 = 0.0007457	0.0065904
318.15 K, m1 = 0.001234	0.0064856
318.15 K, m1 = 0.002038	0.0063572
318.15 K, m1 = 0.003	0.0062427
318.15 K, m1 = 0.003985	0.0061473
318.15 K, m1 = 0.005931	0.0060029
318.15 K, m1 = 0.007878	0.0058897
318.15 K, m1 = 0.009914	0.0057949

CCCC[N+](CCCC)(CCCC)CCCC.[Br-] [tetrabutylammonium bromide] + CN(C)C=O
Details	molar conductivity [S·m2/mol]
283.15 K, m1 = 9.197e-05	0.006236
283.15 K, m1 = 0.0002922	0.006141
283.15 K, m1 = 0.0004908	0.006078
283.15 K, m1 = 0.0006894	0.0060258
283.15 K, m1 = 0.001222	0.0059158
283.15 K, m1 = 0.00199	0.0057906
283.15 K, m1 = 0.002938	0.0056698
283.15 K, m1 = 0.003964	0.0055611
283.15 K, m1 = 0.005897	0.005399
283.15 K, m1 = 0.007916	0.0052571
283.15 K, m1 = 0.009885	0.0051385
283.15 K, m1 = 0.01187	0.0050378
288.15 K, m1 = 0.0002384	0.006641
288.15 K, m1 = 0.0003637	0.006588
288.15 K, m1 = 0.0005543	0.0065255
288.15 K, m1 = 0.0007699	0.0064657
288.15 K, m1 = 0.001232	0.0063637
288.15 K, m1 = 0.00201	0.0062266
288.15 K, m1 = 0.002974	0.0060937
288.15 K, m1 = 0.003946	0.005981
288.15 K, m1 = 0.005906	0.0058005
288.15 K, m1 = 0.007894	0.0056496
288.15 K, m1 = 0.009876	0.0055214
288.15 K, m1 = 0.01183	0.0054109
293.15 K, m1 = 0.000124	0.007196
293.15 K, m1 = 0.000358	0.007067
293.15 K, m1 = 0.0005617	0.006993
293.15 K, m1 = 0.0007496	0.0069356
293.15 K, m1 = 0.001203	0.006825
293.15 K, m1 = 0.001974	0.0066764
293.15 K, m1 = 0.002962	0.006528
293.15 K, m1 = 0.003941	0.0064046
293.15 K, m1 = 0.005913	0.0062071
293.15 K, m1 = 0.007899	0.0060446
293.15 K, m1 = 0.009903	0.0059059
293.15 K, m1 = 0.01185	0.0057855
298.15 K, m1 = 8.12e-05	0.00773
298.15 K, m1 = 0.0003247	0.007565
298.15 K, m1 = 0.0005335	0.007478
298.15 K, m1 = 0.000754	0.0074043
298.15 K, m1 = 0.001188	0.0072894
298.15 K, m1 = 0.001985	0.0071236
298.15 K, m1 = 0.002972	0.0069641
298.15 K, m1 = 0.003989	0.0068266
298.15 K, m1 = 0.005892	0.0066212
298.15 K, m1 = 0.007909	0.0064436
298.15 K, m1 = 0.009849	0.0062996
298.15 K, m1 = 0.0119	0.0061631
303.15 K, m1 = 0.0001279	0.008182
303.15 K, m1 = 0.0003737	0.008028
303.15 K, m1 = 0.0004937	0.007975
303.15 K, m1 = 0.0007203	0.0078909
303.15 K, m1 = 0.00121	0.0077502
303.15 K, m1 = 0.002013	0.0075724
303.15 K, m1 = 0.002974	0.0074063
303.15 K, m1 = 0.003957	0.0072634
303.15 K, m1 = 0.005917	0.0070358
303.15 K, m1 = 0.00787	0.0068512
303.15 K, m1 = 0.009823	0.0066956
303.15 K, m1 = 0.01184	0.0065521
308.15 K, m1 = 0.0001375	0.008672
308.15 K, m1 = 0.0003374	0.008537
308.15 K, m1 = 0.0005902	0.008422
308.15 K, m1 = 0.0007253	0.0083707
308.15 K, m1 = 0.001221	0.0082189
308.15 K, m1 = 0.002004	0.0080331
308.15 K, m1 = 0.002993	0.0078504
308.15 K, m1 = 0.003956	0.0077012
308.15 K, m1 = 0.005922	0.0074573
308.15 K, m1 = 0.007903	0.0072572
308.15 K, m1 = 0.009896	0.007088
308.15 K, m1 = 0.01189	0.0069381
313.15 K, m1 = 6.835e-05	0.009246
313.15 K, m1 = 0.0003232	0.009042
313.15 K, m1 = 0.0005979	0.008909
313.15 K, m1 = 0.0007057	0.0088651
313.15 K, m1 = 0.001228	0.0086936
313.15 K, m1 = 0.002045	0.0084879
313.15 K, m1 = 0.002992	0.0083023
313.15 K, m1 = 0.003971	0.0081415
313.15 K, m1 = 0.00585	0.0078927
313.15 K, m1 = 0.00787	0.0076738
313.15 K, m1 = 0.009873	0.0074917
313.15 K, m1 = 0.01189	0.007332
318.15 K, m1 = 9.782e-05	0.009714
318.15 K, m1 = 0.0003254	0.009541
318.15 K, m1 = 0.0005324	0.009434
318.15 K, m1 = 0.0007651	0.0093342
318.15 K, m1 = 0.001206	0.0091821
318.15 K, m1 = 0.001977	0.0089725
318.15 K, m1 = 0.002989	0.0087596
318.15 K, m1 = 0.003967	0.0085894
318.15 K, m1 = 0.005938	0.0083142
318.15 K, m1 = 0.007894	0.0080896
318.15 K, m1 = 0.009905	0.0078947
318.15 K, m1 = 0.01189	0.0077299
